SMILES strings stand for the structures.

In one assay the target is human Fpn (Homo sapiens, UniProt Q9NP59). In words: biochemical. How it is done: This biophysical assay was developed to confirm inhibition of hepcidin binding to ferroportin (Fpn) more directly. Incubation of TMR-hepcidin with purified human Fpn isolated from Pichia pastoris yeast cells expressing human Fpn with a C-terminal FLAG affinity tag (Bonaccorsi di Patti, 2014) leads to increased fluorescence polarization (FP) of the TMR-hepcidin ligand.

Assay [1] has as its target human Fpn-GFP fusion protein (Homo sapiens, UniProt Q9NP59). As to the kind of experiment: cell-based. The source says:
Growing HEK-293 #354 cells in doxycycline containing media induced expression of human Fpn-GFP fusion protein on the cell surface.

In a further assay the target is T1, ferroportin (Fpn) (Mus musculus, UniProt Q9JHI9).
T1 construct: endogenous in cells; host or cells: J774 mouse macrophage cell line, induced with Fe(III)NTA
T1 sequence (Q9JHI9 1-570): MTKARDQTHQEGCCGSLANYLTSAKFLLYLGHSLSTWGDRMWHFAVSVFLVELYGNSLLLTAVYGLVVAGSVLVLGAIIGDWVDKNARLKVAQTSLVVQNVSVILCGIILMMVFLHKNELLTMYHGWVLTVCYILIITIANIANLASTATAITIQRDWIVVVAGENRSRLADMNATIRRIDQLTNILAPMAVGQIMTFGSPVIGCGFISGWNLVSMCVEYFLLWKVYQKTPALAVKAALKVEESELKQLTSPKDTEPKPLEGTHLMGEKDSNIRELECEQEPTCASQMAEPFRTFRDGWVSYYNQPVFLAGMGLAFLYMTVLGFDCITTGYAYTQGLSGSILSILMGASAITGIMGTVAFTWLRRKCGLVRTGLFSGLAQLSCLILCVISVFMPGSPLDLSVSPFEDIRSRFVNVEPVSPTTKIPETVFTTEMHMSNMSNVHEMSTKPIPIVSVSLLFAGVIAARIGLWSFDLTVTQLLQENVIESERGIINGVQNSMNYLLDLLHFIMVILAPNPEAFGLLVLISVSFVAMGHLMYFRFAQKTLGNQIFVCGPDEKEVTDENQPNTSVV
In words: Hepcidin Internalization Assay (J774). It is filed as cell-based. To be noted: J774 cells, TMR-hepcidin 25 nM, 2 hours; read-out: IC 50, average (AVE) of multiple measurements, hepcidin internalization assay. The source says:
This cellular assay allows quantification of the binding of hepcidin to ferroportin (Fpn) through microscopic detection of internalization of a fluorescently labeled hepcidin into J774 cells. […] Binding of hepcidin to Fpn triggers internalization and degradation of both hepcidin and Fpn. […] Therefore, microscopic detection of cell-associated TMR fluorescence is a measure of hepcidin binding to Fpn and internalization of hepcidin and Fpn. If TMR-hepcidin is prevented from binding to Fpn, cellular TMR fluorescence remains low (Dürrenberger et al, 2013). The effect of small molecular weight Fpn inhibitor compounds in this assay was evaluated in vitro as described below. […] Cat. 655090) and grown at 37° C. with 5% CO2. After overnight incubation, cells were washed 3 times with pre-warmed DMEM w/o phenol red, 30 μl/well of DMEM w/o phenol red was added after the final wash and 10 μl/well of dilution series of test compounds were added in triplicates. […] Cells were incubated in a total volume of 50 μl at 37° C. with 5% CO2 for 2 hours, then Hoechst 33342 dye was added to a final concentration of 0.5 μg/ml to stain nuclei and further incubated for 10 min. at 37° C. with 5% CO2. […] After removal of the paraformaldehyde solution, cells were washed 3 times with PBS leaving 100 μl per well and the plates were sealed with foil plate seal. […] The acquired image data was analysed with the […] analysis software. […] IC50 values were calculated with the Sum(Mean) raw data using “log(inhibitor) vs. response” curve fitting of Prism 5 software (GraphPad Software Inc., version 5.02). For each data set the fit of the “log(inhibitor) vs. response (three parameters)” model was compared to the fit of the “log(inhibitor) vs. response-Variable slope (four parameters)” model and the IC50 data of the preferred model was used.

Sequence of human Fpn-GFP fusion protein (Q9NP59 whole entry, the tested form may be a part): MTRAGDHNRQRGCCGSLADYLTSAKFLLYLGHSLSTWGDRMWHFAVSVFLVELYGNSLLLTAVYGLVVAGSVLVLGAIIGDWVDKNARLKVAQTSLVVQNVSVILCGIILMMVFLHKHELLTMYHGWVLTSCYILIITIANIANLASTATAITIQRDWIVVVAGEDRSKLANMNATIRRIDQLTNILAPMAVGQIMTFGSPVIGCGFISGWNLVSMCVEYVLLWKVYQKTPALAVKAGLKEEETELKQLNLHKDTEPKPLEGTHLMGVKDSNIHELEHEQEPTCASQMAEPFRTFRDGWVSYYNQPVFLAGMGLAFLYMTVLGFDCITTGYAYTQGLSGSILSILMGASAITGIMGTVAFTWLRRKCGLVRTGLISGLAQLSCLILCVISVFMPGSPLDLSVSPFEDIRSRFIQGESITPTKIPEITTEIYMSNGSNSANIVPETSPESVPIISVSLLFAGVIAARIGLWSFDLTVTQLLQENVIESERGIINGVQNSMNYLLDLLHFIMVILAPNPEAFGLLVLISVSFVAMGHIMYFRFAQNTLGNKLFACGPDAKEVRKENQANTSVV
Sequence of human Fpn (Q9NP59 whole entry): as the sequence (Q9NP59 whole entry, the tested form may be a part) above

`CC[C@H](C)[C@@H]1NC(=O)[C@@H](NC(=O)[C@@H](NC(=O)[C@@H]2CCCN2C(=O)[C@H](Cc2ccccc2)NC(=O)[C@H](Cc2c[nH]cn2)NC(=O)[C@@H](NC(=O)[C@@H](N)CC(=O)O)[C@@H](C)O)[C@@H](C)CC)CSSC[C@@H](C(=O)N[C@@H](CCCCN)C(=O)N[C@H](C(=O)O)[C@@H](C)O)NC(=O)[C@@H]2CSSC[C@@H]3NC(=O)[C@@H]4CSSC[C@H](NC(=O)[C@H](Cc5ccccc5)NC1=O)C(=O)N[C@@H](CSSC[C@H](NC(=O)[C@H](CCCCN)NC(=O)[C@H](CO)NC(=O)[C@H](CCCNC(=N)N)NC(=O)[C@H](Cc1c[nH]cn1)NC3=O)C(=O)NCC(=O)N[C@@H](CCSC)C(=O)N2)C(=O)NCC(=O)N4` [hepcidin]: the IC50 against human Fpn was around 370 nM. In assay [1], this compound registered an EC50 of around 4 nM.
Take `O=C(NCc1ncccc1F)c1coc(CCNCCc2nc3cc(C#Cc4ccccc4)ccc3[nH]2)n1` [compound 72]: the IC50 at ferroportin (Fpn) came out at 2 nM.
Still for that read-out and setting: the value for `O=C(NCc1ncccc1F)c1coc(CCNCCc2nc3cc(-c4ccccc4Cl)ccc3[nH]2)n1` [compound 44] was 6 nM; that for `COc1cccc(C#Cc2cccc3nc(CCNCCc4nc(C(=O)NCc5ncccc5F)co4)[nH]c23)c1` [compound 78] was 41 nM.
As to `O=C(NCc1ncccc1F)c1coc(CCNCCc2nc3cc(-n4cccc4)ccc3[nH]2)n1` [compound 32], the IC50 on ferroportin (Fpn) amounted to 27 nM.
For `O=C(NCc1ncccc1C(F)(F)F)c1coc(CCNCCc2nc3c(ccc4ccccc43)[nH]2)n1` [compound 16], the IC50 at ferroportin (Fpn) came to 443 nM.
On the same count and under the same terms, under `Cc1ccccc1-c1ccc2[nH]c(CCNCCc3nc(C(=O)NCc4ncccc4F)co3)nc2c1` [compound 62] stands 8 nM; under `O=C(NCc1ncccc1F)c1coc(CCNCCc2nc3cc(-c4cccc5c4OCCO5)ccc3[nH]2)n1` [compound 81], 7 nM.
With `COc1cccnc1CNC(=O)c1coc(CCNCCc2nc3c4c(ccc3[nH]2)CCCC4)n1` [compound 50], the IC50 on ferroportin (Fpn) was 19 nM.
Turning to `COc1cccnc1CNC(=O)c1coc(CCNCCc2nc3cc(-c4ccccc4)ccc3[nH]2)n1` [compound 53], the IC50 on ferroportin (Fpn) was 16 nM.
For the compound `O=C(NCc1ncccc1F)c1coc(CCNCCc2nc3c(ccc4ccccc43)[nH]2)n1` [compound 5, 2-(2-((2-(3H-naphtho[1,2-d]imidazol-2-yl)ethyl)amino)ethyl)-N-((3-fluoropyridin-2-yl)methyl)oxazole-4-carboxamide], on ferroportin (Fpn), the IC50 stood at 13 nM.
With `O=C(NCc1ccccn1)c1coc(CCNCCc2nc3cc(-c4ccc(F)cc4)ccc3[nH]2)n1` [compound 66], the IC50 at ferroportin (Fpn) came out at 68 nM.
With `O=C(NCc1ncccc1F)c1coc(CCNCCc2nc3ccc(CN4CCOCC4)cc3[nH]2)n1` [compound 35], on ferroportin (Fpn), the IC50 turned out to be 57 nM.
On the same count and under the same terms, under `O=C(NCc1ncccc1F)c1coc(CCNCCc2nc3cc(-c4cccc(F)c4)ccc3[nH]2)n1` [compound 61] stands 11 nM; under `O=C(NCc1ncccc1F)c1coc(CCNCCc2nc3cc(-c4ccccc4)ccc3[nH]2)n1` [compound 19], 6 nM.
On to `O=C(NCc1ncccc1Cl)c1coc(CCNCCc2nc3c(ccc4ccccc43)[nH]2)n1` [compound 14], for which the IC50 on ferroportin (Fpn) turned out to be 33 nM.
For `CCc1ccccc1-c1ccc2[nH]c(CCNCCc3nc(C(=O)NCc4ncccc4F)co3)nc2c1` [compound 71], the IC50 at ferroportin (Fpn) is 6 nM.
Same read-out and setting: the value for `Cc1cccc(-c2ccc3[nH]c(CCNCCc4nc(C(=O)NCc5ncccc5F)co4)nc3c2)c1` [compound 65] was 15 nM; that for `O=C(NCc1ncccc1F)c1coc(CCNCCc2nc3c4c(ccc3[nH]2)CCCC4)n1` [compound 39] was 12 nM.
Take `Cc1ccc(-c2ccc3[nH]c(CCNCCc4nc(C(=O)NCc5ncccc5F)co4)nc3c2)cc1` [compound 60]: the IC50 at ferroportin (Fpn) is 13 nM.
As for `COc1cccc(-c2ccc3[nH]c(CCNCCc4nc(C(=O)NCc5ccccn5)co4)nc3c2)c1` [compound 70], the IC50 at ferroportin (Fpn) is 26 nM.
Regarding `O=C(NCc1ncccc1Cl)c1coc(CCNCCc2nc3cc4c(cc3[nH]2)OCCO4)n1` [compound 55], the IC50 on ferroportin (Fpn) amounted to 2 nM.
As to `COc1cccc(-c2ccc3[nH]c(CCNCCc4nc(C(=O)NCc5ncccc5F)co4)nc3c2)c1` [compound 63], on ferroportin (Fpn), the IC50 came to 8 nM.
Turning to `O=C(NCc1ncccc1F)c1coc(CCNCCc2nc3cc(-c4ccccc4F)ccc3[nH]2)n1` [compound 46], the IC50 on ferroportin (Fpn) was 7 nM.
As to `O=C(NCc1ncccc1F)c1coc(CCNCCc2nc3c(-c4ccncc4)cccc3[nH]2)n1` [compound 20], the IC50 on ferroportin (Fpn) turned out to be 189 nM.
The same measure, in the same setting: under `O=C(NCc1ncccc1F)c1coc(CCNCc2nc3c(ccc4ccccc43)[nH]2)n1` [compound 4, 2-(2-(((3H-naphtho[1,2-d]imidazol-2-yl)methyl)amino)ethyl)-N-((3-fluoropyridin-2-yl)methyl)oxazole-4-carboxamide] stands 68 nM.

By EC50 is commonly meant the concentration that produces a half-maximal response. A low value points to greater potency.

The values above are taken from US20240239780A1, “MODIFIED FERROPORTIN INHIBITORS” (Vifor (International) AG, priority 2021, published 2024).
